# Source: patent US20140249095A1, “Method for Inhibiting Spinocerebellar Ataxia” (National Normal University, priority 2013, published 2014)
# How the values were obtained:
# [1] = tested on: ATXN3/Q75 aggregation in 293 ATXN3/Q75-GFP cells; experiment: ATXN3/Q75 aggregation assay on 293 cell model; assay type: cell-based, human; conditions: for ATXN3/Q75 aggregation as compared to untreated cells: 293 ATXN3/Q75-GFP cells, doxycycline and oxaliplatin 6 days; for IC50 cytotoxicity/effective dose ratio: effective dose = reduced the ATXN3/Q75 aggregation to 85% or lower
# Experimental: (§1) The cloned pcDNA5/FRT/TO-ATXN3/Q14 and Q75 plasmids were used to generate the isogenic ATXN3/Q14˜75 cell lines by targeting insertion into Flp-In™-293 cells. These cell lines were grown in medium containing 5 μg/mL blasticidin and 100 μg/mL hygromycin (InvivoGen). In addition, human SH-SYSY-derived Flp-In host cell line was constructed as described, and the SH-SYSY host cells were used to generate isogenic ATXN3/Q14˜75 lines and maintained as described above. ATXN3/Q75 Aggregation Assay
# Then, doxycycline (10 μg/mL, BD) was added to the medium in each well to induce ATXN3/Q75-GFP expression for 6 days.
# In the present example, the influences of the P. lactiflora extract and paeoniflorin in the ATXN3/Q75-GFP cells were respectively examined.
# in vitro [2] = conditions: human
# Experimental: (§2) Cells were cultivated at 37° C. incubator containing 5% CO2 and cell proliferation was measured based upon the reduction of the tetrazolium salt, 3,[4,5-dimethylthiazol-2-yl]-2,5-diphenyl-tetrazolium bromide (MTT). Cells were plated into 48-well (5×10^4/well) dishes, grown for 20 hours and treated with different concentrations of the P. lactiflora extract (5˜30 mg/mL) or pure compound (100 nM˜1 mM). After one day, 20 μL MTT (5 mg/mL in PBS, Sigma) was added to cells and incubated for 2 hours. The absorbance of the purple formazan dye was measured at 570 nm by a Bio-Tek μQuant Universal Microplate Spectrophotometer.
# [3] = tested on: ATXN3/Q75 aggregation in SH-SY5Y ATXN3/Q75-GFP cells; experiment: ATXN3/Q75 aggregation assay on SH-SY5Y cell model; assay type: cell-based, human; conditions: paeoniflorin 100 nM; retinoic acid differentiated SH-SY5Y ATXN3/Q75-GFP cells, 6 days
# Experimental: as §1
# in vitro [4] = conditions: human; remark: listed apart in the source
# Experimental: as §2
# Experimental for HEK-293 cells: as §2
# Experimental for SH-SY5Y cells: as §2
IC50 (SH-SY5Y cells) [µM],IC50 (HEK-293 cells) [µM],IC50 at 24 h (in vitro [2]) [µM],IC50 at 24 h (in vitro [4]) [µM],Structure (SMILES),ATXN3/Q75 aggregation as compared to untreated cells ([1]; at 5 μM) [%],IC50 cytotoxicity/effective dose ratio [1],ATXN3/Q75 aggregation as compared to untreated cells ([1]; at 100 nM) [%],aggregation reduction in ATXN3/Q75 expressed neuronal cells [3] [%]
> 1000,> 1000,–,–,C[C@]12C[C@@H](O)[C@@H]3C[C@@]1(O[C@@H]1O[C@H](CO)[C@@H](O)[C@H](O)[C@H]1O)[C@@]3(COC(=O)c1ccccc1)C(=O)O2 [albiflorin],78,> 200,–,–
–,–,> 1000,> 1000,C[C@@]12C[C@@]3(O)O[C@@H](O1)[C@]1(COC(=O)c4ccccc4)[C@H]3C[C@@]12O[C@@H]1O[C@H](CO)[C@@H](O)[C@H](O)[C@H]1O [paeoniflorin],–,> 10000,73,21
–,–,–,–,"O=C(CCCCCCC(=O)Nc1ccccc1)NO [SAHA, suberoylanilide hydroxamic acid, reference compound]",–,–,85,–
